In PMC12670405, “Second-Generation AURKA-Targeting PROTACs: Structural Optimization toward in Vivo Degradation in Neuroblastoma” (Journal of Medicinal Chemistry, 2025):

Legend:
Assay in all cases: KINOMEscan scanMAX
Type in all cases: binding
Conditions in all cases: read-out: Percent Control
OSR1 = target: T1, OSR1 (Homo sapiens, UniProt O95747)
T1 construct: purchased Eurofins Discovery (DiscoverX KINOMEscan scanMAX)
Method: (§1) The kinome-wide binding assay was performed by Eurofins Discovery using the scanMAX screening platform. More information can be found on the Eurofins Discovery Web site.

ERN1 = target: T2, ERN1 (Homo sapiens, UniProt O75460)
T2 construct: purchased Eurofins Discovery (DiscoverX KINOMEscan scanMAX)
Method: as §1

STK36 = target: T3, STK36 (Homo sapiens, UniProt Q9NRP7)
T3 construct: purchased Eurofins Discovery (DiscoverX KINOMEscan scanMAX)
Method: as §1

GAK = target: T4, GAK (Homo sapiens, UniProt O14976)
T4 construct: purchased Eurofins Discovery (DiscoverX KINOMEscan scanMAX)
Method: as §1

TRPM6 = target: T5, TRPM6 (Homo sapiens, UniProt Q9BX84)
T5 construct: purchased Eurofins Discovery (DiscoverX KINOMEscan scanMAX)
Method: as §1

BRAF = target: T6, BRAF (Homo sapiens, UniProt P15056)
T6 construct: purchased Eurofins Discovery (DiscoverX KINOMEscan scanMAX)
Method: as §1

PIM2 = target: T7, PIM2 (Homo sapiens, UniProt Q9P1W9)
T7 construct: purchased Eurofins Discovery (DiscoverX KINOMEscan scanMAX)
Method: as §1

PCTK3 = target: T8, PCTK3 (Homo sapiens, UniProt Q07002)
T8 construct: purchased Eurofins Discovery (DiscoverX KINOMEscan scanMAX)
Method: as §1

KIT(V559D) = target: T9, KIT(V559D) (Homo sapiens, UniProt P10721, V559D)
T9 construct: purchased Eurofins Discovery (DiscoverX KINOMEscan scanMAX)
Method: as §1

MEK5 = target: T10, MEK5 (Homo sapiens, UniProt Q13163)
T10 construct: purchased Eurofins Discovery (DiscoverX KINOMEscan scanMAX)
Method: as §1

NEK2 = target: T11, NEK2 (Homo sapiens, UniProt P51955)
T11 construct: purchased Eurofins Discovery (DiscoverX KINOMEscan scanMAX)
Method: as §1

BIKE = target: T12, BIKE (Homo sapiens, UniProt Q9NSY1)
T12 construct: purchased Eurofins Discovery (DiscoverX KINOMEscan scanMAX)
Method: as §1

TLK1 = target: T13, TLK1 (Homo sapiens, UniProt Q9UKI8)
T13 construct: purchased Eurofins Discovery (DiscoverX KINOMEscan scanMAX)
Method: as §1

PFTK1 = target: T14, PFTK1 (Homo sapiens, UniProt O94921)
T14 construct: purchased Eurofins Discovery (DiscoverX KINOMEscan scanMAX)
Method: as §1

BLK = target: T15, BLK (Homo sapiens, UniProt P51451)
T15 construct: purchased Eurofins Discovery (DiscoverX KINOMEscan scanMAX)
Method: as §1

CTK = target: T16, CTK (Homo sapiens, UniProt P42679)
T16 construct: purchased Eurofins Discovery (DiscoverX KINOMEscan scanMAX)
Method: as §1

NEK7 = target: T17, NEK7 (Homo sapiens, UniProt Q8TDX7)
T17 construct: purchased Eurofins Discovery (DiscoverX KINOMEscan scanMAX)
Method: as §1

MINK = target: T18, MINK (Homo sapiens, UniProt Q8N4C8)
T18 construct: purchased Eurofins Discovery (DiscoverX KINOMEscan scanMAX)
Method: as §1

[1] = target: T19, ABL1(H396P)-phosphorylated (Homo sapiens, UniProt P00519, H396P)
T19 construct: purchased Eurofins Discovery (DiscoverX KINOMEscan scanMAX)
Method: as §1

CSNK1G1 = target: T20, CSNK1G1 (Homo sapiens, UniProt Q9HCP0)
T20 construct: purchased Eurofins Discovery (DiscoverX KINOMEscan scanMAX)
Method: as §1

MYO3A = target: T21, MYO3A (Homo sapiens, UniProt Q8NEV4)
T21 construct: purchased Eurofins Discovery (DiscoverX KINOMEscan scanMAX)
Method: as §1

RAF1 = target: T22, RAF1 (Homo sapiens, UniProt P04049)
T22 construct: purchased Eurofins Discovery (DiscoverX KINOMEscan scanMAX)
Method: as §1

SRC = target: T23, SRC (Homo sapiens, UniProt P12931)
T23 construct: purchased Eurofins Discovery (DiscoverX KINOMEscan scanMAX)
Method: as §1

ROS1 = target: T24, ROS1 (Homo sapiens, UniProt P08922)
T24 construct: purchased Eurofins Discovery (DiscoverX KINOMEscan scanMAX)
Method: as §1

LCK = target: T25, LCK (Homo sapiens, UniProt P06239)
T25 construct: purchased Eurofins Discovery (DiscoverX KINOMEscan scanMAX)
Method: as §1

AKT3 = target: T26, AKT3 (Homo sapiens, UniProt Q9Y243)
T26 construct: purchased Eurofins Discovery (DiscoverX KINOMEscan scanMAX)
Method: as §1

VEGFR2 = target: T27, VEGFR2 (Homo sapiens, UniProt P35968)
T27 construct: purchased Eurofins Discovery (DiscoverX KINOMEscan scanMAX)
Method: as §1

BMPR2 = target: T28, BMPR2 (Homo sapiens, UniProt Q13873)
T28 construct: purchased Eurofins Discovery (DiscoverX KINOMEscan scanMAX)
Method: as §1

TAOK1 = target: T29, TAOK1 (Homo sapiens, UniProt Q7L7X3)
T29 construct: purchased Eurofins Discovery (DiscoverX KINOMEscan scanMAX)
Method: as §1

ICK = target: T30, ICK (Homo sapiens, UniProt Q9UPZ9)
T30 construct: purchased Eurofins Discovery (DiscoverX KINOMEscan scanMAX)
Method: as §1

MET = target: T31, MET (Homo sapiens, UniProt P08581)
T31 construct: purchased Eurofins Discovery (DiscoverX KINOMEscan scanMAX)
Method: as §1

SIK2 = target: T32, SIK2 (Homo sapiens, UniProt Q9H0K1)
T32 construct: purchased Eurofins Discovery (DiscoverX KINOMEscan scanMAX)
Method: as §1

EGFR(E746-A750del) = target: T33, EGFR(E746-A750del) (Homo sapiens, UniProt P00533, DEL746-750)
T33 construct: purchased Eurofins Discovery (DiscoverX KINOMEscan scanMAX)
Method: as §1

MKNK1 = target: T34, MKNK1 (Homo sapiens, UniProt Q9BUB5)
T34 construct: purchased Eurofins Discovery (DiscoverX KINOMEscan scanMAX)
Method: as §1

YSK1 = target: T35, YSK1 (Homo sapiens, UniProt O00506)
T35 construct: purchased Eurofins Discovery (DiscoverX KINOMEscan scanMAX)
Method: as §1

T22 sequence (P04049 whole entry): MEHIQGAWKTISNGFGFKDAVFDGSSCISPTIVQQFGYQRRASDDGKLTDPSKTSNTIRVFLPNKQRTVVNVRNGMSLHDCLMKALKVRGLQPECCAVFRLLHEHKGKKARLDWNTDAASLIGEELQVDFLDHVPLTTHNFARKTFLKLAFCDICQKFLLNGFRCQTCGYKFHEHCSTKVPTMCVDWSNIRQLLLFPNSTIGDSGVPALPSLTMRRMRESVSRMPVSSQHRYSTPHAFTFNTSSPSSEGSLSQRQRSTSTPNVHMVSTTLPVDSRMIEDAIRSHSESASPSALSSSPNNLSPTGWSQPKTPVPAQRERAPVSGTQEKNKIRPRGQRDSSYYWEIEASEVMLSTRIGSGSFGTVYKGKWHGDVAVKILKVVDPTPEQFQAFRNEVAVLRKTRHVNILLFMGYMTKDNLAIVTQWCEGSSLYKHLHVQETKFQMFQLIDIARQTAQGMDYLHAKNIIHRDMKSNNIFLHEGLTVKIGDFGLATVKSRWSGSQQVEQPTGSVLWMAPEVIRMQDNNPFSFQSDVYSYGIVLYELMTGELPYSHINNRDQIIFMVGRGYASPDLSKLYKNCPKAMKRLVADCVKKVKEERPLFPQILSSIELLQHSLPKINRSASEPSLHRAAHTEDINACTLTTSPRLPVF
T34 sequence (Q9BUB5 whole entry): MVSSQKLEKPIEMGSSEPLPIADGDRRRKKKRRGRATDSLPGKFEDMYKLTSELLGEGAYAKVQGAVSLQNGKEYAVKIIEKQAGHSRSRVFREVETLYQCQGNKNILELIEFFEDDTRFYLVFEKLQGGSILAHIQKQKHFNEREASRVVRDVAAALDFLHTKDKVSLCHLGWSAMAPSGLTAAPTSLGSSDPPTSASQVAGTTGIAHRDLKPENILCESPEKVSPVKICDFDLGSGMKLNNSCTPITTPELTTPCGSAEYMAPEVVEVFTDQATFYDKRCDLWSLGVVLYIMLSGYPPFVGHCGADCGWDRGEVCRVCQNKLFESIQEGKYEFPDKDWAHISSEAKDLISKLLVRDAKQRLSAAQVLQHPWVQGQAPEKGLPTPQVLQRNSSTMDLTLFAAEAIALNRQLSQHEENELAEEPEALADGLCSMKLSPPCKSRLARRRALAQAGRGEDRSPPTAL
T20 sequence (Q9HCP0 whole entry): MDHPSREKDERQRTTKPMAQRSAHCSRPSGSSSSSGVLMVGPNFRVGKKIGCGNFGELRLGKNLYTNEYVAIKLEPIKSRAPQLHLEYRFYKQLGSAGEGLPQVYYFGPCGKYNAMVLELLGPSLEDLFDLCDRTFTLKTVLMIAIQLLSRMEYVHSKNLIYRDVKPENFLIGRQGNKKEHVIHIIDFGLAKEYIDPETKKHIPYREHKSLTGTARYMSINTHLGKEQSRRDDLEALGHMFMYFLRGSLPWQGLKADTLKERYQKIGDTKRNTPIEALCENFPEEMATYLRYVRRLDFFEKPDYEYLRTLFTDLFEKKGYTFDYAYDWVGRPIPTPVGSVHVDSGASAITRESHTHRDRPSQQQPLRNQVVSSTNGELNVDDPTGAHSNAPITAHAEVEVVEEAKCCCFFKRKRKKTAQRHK
T5 sequence (Q9BX84 whole entry): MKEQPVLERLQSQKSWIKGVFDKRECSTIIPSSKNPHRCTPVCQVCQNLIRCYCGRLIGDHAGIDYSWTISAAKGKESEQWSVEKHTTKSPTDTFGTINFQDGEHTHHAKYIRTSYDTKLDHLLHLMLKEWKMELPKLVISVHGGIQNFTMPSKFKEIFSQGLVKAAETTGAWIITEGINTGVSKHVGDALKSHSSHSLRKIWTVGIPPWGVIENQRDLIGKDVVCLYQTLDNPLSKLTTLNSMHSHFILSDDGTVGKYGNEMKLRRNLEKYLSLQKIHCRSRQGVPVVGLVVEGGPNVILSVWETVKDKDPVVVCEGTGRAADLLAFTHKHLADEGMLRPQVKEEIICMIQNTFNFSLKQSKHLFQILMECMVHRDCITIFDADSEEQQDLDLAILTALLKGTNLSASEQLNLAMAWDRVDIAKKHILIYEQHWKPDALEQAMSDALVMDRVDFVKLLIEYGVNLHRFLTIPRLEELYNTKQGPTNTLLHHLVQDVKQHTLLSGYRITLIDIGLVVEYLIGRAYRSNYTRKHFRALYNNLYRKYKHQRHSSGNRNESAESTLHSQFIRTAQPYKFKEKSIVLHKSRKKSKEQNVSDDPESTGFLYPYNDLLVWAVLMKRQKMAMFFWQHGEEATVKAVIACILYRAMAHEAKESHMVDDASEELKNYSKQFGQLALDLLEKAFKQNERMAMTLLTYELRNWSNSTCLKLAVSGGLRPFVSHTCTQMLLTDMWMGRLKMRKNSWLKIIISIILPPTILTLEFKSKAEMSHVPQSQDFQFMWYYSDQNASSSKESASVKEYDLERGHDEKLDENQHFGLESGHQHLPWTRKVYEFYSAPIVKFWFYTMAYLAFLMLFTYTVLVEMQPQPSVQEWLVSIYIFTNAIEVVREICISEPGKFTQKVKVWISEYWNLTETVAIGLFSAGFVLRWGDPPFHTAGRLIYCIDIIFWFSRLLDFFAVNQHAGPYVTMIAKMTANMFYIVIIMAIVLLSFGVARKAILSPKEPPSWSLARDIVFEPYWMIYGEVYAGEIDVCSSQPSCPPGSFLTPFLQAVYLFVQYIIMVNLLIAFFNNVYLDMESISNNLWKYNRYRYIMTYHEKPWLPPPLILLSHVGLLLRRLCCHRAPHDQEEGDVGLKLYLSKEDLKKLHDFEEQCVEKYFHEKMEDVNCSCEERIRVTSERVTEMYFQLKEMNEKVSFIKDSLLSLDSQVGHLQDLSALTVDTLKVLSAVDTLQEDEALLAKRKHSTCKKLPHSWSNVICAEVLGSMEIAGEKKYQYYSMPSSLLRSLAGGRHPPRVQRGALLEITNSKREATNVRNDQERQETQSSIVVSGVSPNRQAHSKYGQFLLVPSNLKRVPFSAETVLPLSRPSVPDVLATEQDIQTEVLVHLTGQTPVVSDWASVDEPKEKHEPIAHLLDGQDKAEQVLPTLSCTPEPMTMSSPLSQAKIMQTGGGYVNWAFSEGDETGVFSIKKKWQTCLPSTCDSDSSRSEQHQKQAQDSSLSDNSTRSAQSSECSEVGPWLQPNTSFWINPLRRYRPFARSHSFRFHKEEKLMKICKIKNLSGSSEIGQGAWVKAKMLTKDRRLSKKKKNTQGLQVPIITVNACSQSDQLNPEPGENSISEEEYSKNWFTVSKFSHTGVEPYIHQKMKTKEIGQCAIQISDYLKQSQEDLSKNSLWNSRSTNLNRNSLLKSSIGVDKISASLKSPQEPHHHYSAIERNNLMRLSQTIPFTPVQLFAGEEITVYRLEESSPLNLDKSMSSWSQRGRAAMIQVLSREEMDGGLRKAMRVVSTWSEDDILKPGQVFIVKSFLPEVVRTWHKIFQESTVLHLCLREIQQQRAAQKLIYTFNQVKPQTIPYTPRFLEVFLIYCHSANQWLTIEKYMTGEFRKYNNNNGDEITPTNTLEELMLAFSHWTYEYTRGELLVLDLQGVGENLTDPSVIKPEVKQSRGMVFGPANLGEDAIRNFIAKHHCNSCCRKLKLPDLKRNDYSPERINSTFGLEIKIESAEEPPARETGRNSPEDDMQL
T27 sequence (P35968 20-1356): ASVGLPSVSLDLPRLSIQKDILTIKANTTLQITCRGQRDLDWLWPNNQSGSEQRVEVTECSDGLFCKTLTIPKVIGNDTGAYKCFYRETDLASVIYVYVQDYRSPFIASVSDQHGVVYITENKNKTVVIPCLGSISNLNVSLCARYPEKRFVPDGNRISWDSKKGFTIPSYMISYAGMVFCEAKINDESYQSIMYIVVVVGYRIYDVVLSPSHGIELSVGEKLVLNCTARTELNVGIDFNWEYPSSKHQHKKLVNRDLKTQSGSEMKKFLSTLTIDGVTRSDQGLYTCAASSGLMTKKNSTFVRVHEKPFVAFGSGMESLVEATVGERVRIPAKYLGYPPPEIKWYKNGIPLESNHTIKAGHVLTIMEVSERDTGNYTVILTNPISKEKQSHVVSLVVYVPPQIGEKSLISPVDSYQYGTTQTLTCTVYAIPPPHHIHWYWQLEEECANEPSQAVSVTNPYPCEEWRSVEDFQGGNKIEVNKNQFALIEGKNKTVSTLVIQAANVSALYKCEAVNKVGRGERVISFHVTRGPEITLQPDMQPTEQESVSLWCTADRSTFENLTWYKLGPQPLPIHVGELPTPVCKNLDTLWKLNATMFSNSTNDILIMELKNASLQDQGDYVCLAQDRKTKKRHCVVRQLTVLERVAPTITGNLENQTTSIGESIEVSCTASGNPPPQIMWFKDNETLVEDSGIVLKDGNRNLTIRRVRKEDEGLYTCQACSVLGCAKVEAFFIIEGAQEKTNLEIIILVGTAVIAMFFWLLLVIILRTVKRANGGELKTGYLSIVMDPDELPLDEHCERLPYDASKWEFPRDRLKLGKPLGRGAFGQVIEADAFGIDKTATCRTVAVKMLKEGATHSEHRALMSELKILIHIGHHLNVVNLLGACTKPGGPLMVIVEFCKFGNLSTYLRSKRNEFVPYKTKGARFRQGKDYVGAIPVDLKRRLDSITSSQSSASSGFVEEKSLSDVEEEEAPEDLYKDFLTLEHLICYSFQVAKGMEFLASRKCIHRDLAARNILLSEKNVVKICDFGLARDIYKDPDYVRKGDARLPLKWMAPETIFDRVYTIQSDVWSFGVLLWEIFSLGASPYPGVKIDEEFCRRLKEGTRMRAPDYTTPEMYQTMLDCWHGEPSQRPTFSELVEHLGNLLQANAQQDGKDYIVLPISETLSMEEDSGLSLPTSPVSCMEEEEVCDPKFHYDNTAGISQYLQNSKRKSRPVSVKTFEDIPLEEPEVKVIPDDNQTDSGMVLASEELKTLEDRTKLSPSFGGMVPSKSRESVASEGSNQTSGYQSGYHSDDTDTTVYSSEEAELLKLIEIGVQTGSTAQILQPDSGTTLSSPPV

**Q.** `Cc1cc(Nc2ccc(F)c(CC3(C(=O)N4CCC(F)(CN5CCN(c6ccc(N7CCC(=O)NC7=O)cn6)CC5)CC4)CCN(Cc4cccc(Cl)c4F)CC3)n2)n[nH]1` [SK5527] was tested. Which remaining binding at 0.1 µM (OSR1; 100 nM) did it give?
**A.** 100%

**Q.** And the remaining binding at 1 µM (OSR1; 1000 nM)?
**A.** 97%

**Q.** And the remaining binding at 0.1 µM (ERN1; 100 nM)?
**A.** 100%

**Q.** What about the remaining binding at 1 µM (ERN1; 1000 nM) of the same compound?
**A.** 100%

**Q.** And the remaining binding at 0.1 µM (STK36; 100 nM)?
**A.** 71%

**Q.** What about the remaining binding at 1 µM (STK36; 1000 nM) of the same compound?
**A.** 94%

**Q.** What about the remaining binding at 0.1 µM (GAK; 100 nM) of the same compound?
**A.** 88%

**Q.** And the remaining binding at 1 µM (GAK; 1000 nM)?
**A.** 99%

**Q.** What about the remaining binding at 0.1 µM (TRPM6; 100 nM) of the same compound?
**A.** 100%

**Q.** And the remaining binding at 1 µM (TRPM6; 1000 nM)?
**A.** 100%

**Q.** And the remaining binding at 0.1 µM (BRAF; 100 nM)?
**A.** 100%

**Q.** What about the remaining binding at 1 µM (BRAF; 1000 nM) of the same compound?
**A.** 100%

**Q.** And the remaining binding at 0.1 µM (PIM2; 100 nM)?
**A.** 60%

**Q.** And the remaining binding at 1 µM (PIM2; 1000 nM)?
**A.** 71%

**Q.** What about the remaining binding at 0.1 µM (PCTK3; 100 nM) of the same compound?
**A.** 91%

**Q.** What about the remaining binding at 1 µM (PCTK3; 1000 nM) of the same compound?
**A.** 84%

**Q.** What about the remaining binding at 0.1 µM (KIT(V559D); 100 nM) of the same compound?
**A.** 100%

**Q.** And the remaining binding at 1 µM (KIT(V559D); 1000 nM)?
**A.** 100%

**Q.** And the remaining binding at 0.1 µM (MEK5; 100 nM)?
**A.** 83%

**Q.** What about the remaining binding at 1 µM (MEK5; 1000 nM) of the same compound?
**A.** 61%

**Q.** What about the remaining binding at 0.1 µM (NEK2; 100 nM) of the same compound?
**A.** 90%

**Q.** And the remaining binding at 1 µM (NEK2; 1000 nM)?
**A.** 91%

**Q.** What about the remaining binding at 0.1 µM (BIKE; 100 nM) of the same compound?
**A.** 80%

**Q.** And the remaining binding at 1 µM (BIKE; 1000 nM)?
**A.** 73%

**Q.** What about the remaining binding at 0.1 µM (TLK1; 100 nM) of the same compound?
**A.** 88%

**Q.** What about the remaining binding at 1 µM (TLK1; 1000 nM) of the same compound?
**A.** 74%

**Q.** And the remaining binding at 0.1 µM (PFTK1; 100 nM)?
**A.** 100%

**Q.** And the remaining binding at 1 µM (PFTK1; 1000 nM)?
**A.** 95%

**Q.** What about the remaining binding at 0.1 µM (BLK; 100 nM) of the same compound?
**A.** 97%

**Q.** And the remaining binding at 1 µM (BLK; 1000 nM)?
**A.** 45%

**Q.** And the remaining binding at 0.1 µM (CTK; 100 nM)?
**A.** 100%

**Q.** What about the remaining binding at 1 µM (CTK; 1000 nM) of the same compound?
**A.** 91%

**Q.** And the remaining binding at 0.1 µM (NEK7; 100 nM)?
**A.** 74%

**Q.** And the remaining binding at 1 µM (NEK7; 1000 nM)?
**A.** 73%

**Q.** What about the remaining binding at 0.1 µM (MINK; 100 nM) of the same compound?
**A.** 98%

**Q.** And the remaining binding at 1 µM (MINK; 1000 nM)?
**A.** 86%

**Q.** What about the remaining binding at 0.1 µM ([1]; 100 nM) of the same compound?
**A.** 88%

**Q.** What about the remaining binding at 1 µM ([1]; 1000 nM) of the same compound?
**A.** 70%

**Q.** And the remaining binding at 0.1 µM (CSNK1G1; 100 nM)?
**A.** 100%

**Q.** What about the remaining binding at 1 µM (CSNK1G1; 1000 nM) of the same compound?
**A.** 98%

**Q.** What about the remaining binding at 0.1 µM (MYO3A; 100 nM) of the same compound?
**A.** 100%

**Q.** And the remaining binding at 1 µM (MYO3A; 1000 nM)?
**A.** 100%

**Q.** And the remaining binding at 0.1 µM (RAF1; 100 nM)?
**A.** 100%

**Q.** And the remaining binding at 1 µM (RAF1; 1000 nM)?
**A.** 100%

**Q.** What about the remaining binding at 0.1 µM (SRC; 100 nM) of the same compound?
**A.** 66%

**Q.** And the remaining binding at 1 µM (SRC; 1000 nM)?
**A.** 33%

**Q.** What about the remaining binding at 0.1 µM (ROS1; 100 nM) of the same compound?
**A.** 61%

**Q.** What about the remaining binding at 1 µM (ROS1; 1000 nM) of the same compound?
**A.** 16%

**Q.** What about the remaining binding at 0.1 µM (LCK; 100 nM) of the same compound?
**A.** 82%

**Q.** And the remaining binding at 1 µM (LCK; 1000 nM)?
**A.** 84%

**Q.** And the remaining binding at 0.1 µM (AKT3; 100 nM)?
**A.** 86%

**Q.** And the remaining binding at 1 µM (AKT3; 1000 nM)?
**A.** 91%

**Q.** And the remaining binding at 0.1 µM (VEGFR2; 100 nM)?
**A.** 85%

**Q.** What about the remaining binding at 1 µM (VEGFR2; 1000 nM) of the same compound?
**A.** 65%

**Q.** What about the remaining binding at 0.1 µM (BMPR2; 100 nM) of the same compound?
**A.** 98%

**Q.** What about the remaining binding at 1 µM (BMPR2; 1000 nM) of the same compound?
**A.** 50%

**Q.** What about the remaining binding at 0.1 µM (TAOK1; 100 nM) of the same compound?
**A.** 79%

**Q.** What about the remaining binding at 1 µM (TAOK1; 1000 nM) of the same compound?
**A.** 88%

**Q.** And the remaining binding at 0.1 µM (ICK; 100 nM)?
**A.** 92%

**Q.** And the remaining binding at 1 µM (ICK; 1000 nM)?
**A.** 48%

**Q.** And the remaining binding at 0.1 µM (MET; 100 nM)?
**A.** 94%

**Q.** What about the remaining binding at 1 µM (MET; 1000 nM) of the same compound?
**A.** 81%

**Q.** What about the remaining binding at 0.1 µM (SIK2; 100 nM) of the same compound?
**A.** 100%

**Q.** What about the remaining binding at 1 µM (SIK2; 1000 nM) of the same compound?
**A.** 93%

**Q.** What about the remaining binding at 0.1 µM (EGFR(E746-A750del); 100 nM) of the same compound?
**A.** 78%

**Q.** And the remaining binding at 1 µM (EGFR(E746-A750del); 1000 nM)?
**A.** 70%

**Q.** What about the remaining binding at 0.1 µM (MKNK1; 100 nM) of the same compound?
**A.** 84%

**Q.** And the remaining binding at 1 µM (MKNK1; 1000 nM)?
**A.** 92%

**Q.** And the remaining binding at 0.1 µM (YSK1; 100 nM)?
**A.** 100%

**Q.** And the remaining binding at 1 µM (YSK1; 1000 nM)?
**A.** 98%
